Among the test systems are Escherichia coli AB94012; Escherichia coli D21; Bacillus megaterium Bm11; Micrococcus luteus Ml11; Streptococcus uberis; Listeria innocua; Leuconostoc lactis; Bacillus cereus; Escherichia coli W3110; Pseudomonas putida; Enterococcus sp. S13.
Common to all, as to assay: ≥ marks a high value that may be exact or a test limit, other limits are often not marked, values filed in µg/mL are converted to µM
For assay [1], the system named is Staphylococcus aureus P838.
Assay [2] concerns Staphylococcus aureus P1381.
The subject of assay [3] is Pseudomonas aeruginosa AB93066.
Assay [4] concerns Staphylococcus aureus AB94004.
Assay [5] deals with Staphylococcus aureus P1374.
Assay [6] deals with Staphylococcus aureus P1369.
Assay [7] has as its system Bacillus thuringiensis AB92037.
In assay [8] the test system is Micrococcus luteus AB93113.
The subject of assay [9] is Bacillus subtilis AB91021.
In assay [10] the test system is Staphylococcus aureus P1386.
Assay [11] has as its system Enterococcus faecalis P675.
Assay [12] has as its system Bacillus subtilis ATCC 6633.
Assay [13] concerns Pseudomonas aeruginosa OT97.
Assay [14] concerns Shigella flexneri ATCC 203.
For assay [15], the system named is Malassezia furfur KCTC 7744.
For assay [16], the system named is Trichosporon beigelii KCTC 7707.
Assay [17] concerns Candida albicans ATCC 90028.
For assay [18], the system named is Staphylococcus aureus JC-1.
The test system of assay [19] is Proteus vulgaris OX19 ATCC 6380.
In assay [20] the test system is Staphylococcus aureus Cowan 1.
For assay [21], the system named is Trichophyton rubrum KCTC 6345.
The test system of assay [22] is Enterococcus faecalis ATCC 29212.
In assay [23] the test system is Micrococcus luteus ATCC 9341.
Assay [24] relates to Staphylococcus epidermidis ATCC 14990.
Assay [25] relates to Staphylococcus aureus ATCC 29213.
Assay [26] deals with Burkholderia thailandensis.
The subject of assay [27] is Bacillus subtilis ATCC 9372.
For assay [28], the system named is Staphylococcus aureus UL12.
For assay [29], the system named is Bacillus anthracis Sterne 34F2.
Assay [30] relates to Escherichia coli DH5alpha.
The subject of assay [31] is Klebsiella oxytoca AB2010143.
The subject of assay [32] is Salmonella enterica AB2010185.
Assay [33] has as its system Bacillus magaterium AB90008.
Assay [34] has as its system Staphylococcus aureus 16472.
Assay [35] relates to Enterobacter cloacae AB2010162.
For assay [36], the system named is Candida tropicalis AY91009.
Assay [37] deals with Micrococcus luteus AB2010179.

≈ marks a conversion by molar mass, not a printed value.

Broadly, the MIC is the least concentration at which growth counts as inhibited. Higher therefore signals a less susceptible organism.

Regarding `CC(C)C[C@H](NC(=O)[C@H](CO)NC(=O)CNC(=O)[C@H](Cc1c[nH]c2ccccc12)NC(=O)[C@H](Cc1ccccc1)NC(=O)CN)C(=O)N[C@@H](Cc1c[nH]c2ccccc12)C(=O)N[C@@H](CCC(=O)O)C(=O)NCC(=O)N[C@H](C(=O)N[C@@H](CCCCN)C(=O)N[C@@H](CO)C(=O)N[C@H](C(=O)N[C@H](C(N)=O)C(C)C)C(C)C)C(C)C` [GFWGSLWEGVKSVV], the MIC was no less than 32.2 µM in assay [1]; no less than 322 µM in [2]; no less than 64.5 µM in assay [3]; 8.06 µM (≈ 12.5 µg/mL) in [4]; no less than 129 µM in assay [5]; no less than 64.5 µM in the assay with Escherichia coli AB94012. Besides, the MIC was no less than 80.6 µM in assay [6]; no less than 64.5 µM in [7]; no less than 64.5 µM in assay [8]; no less than 64.5 µM in [9]; no less than 161 µM in [10]; no less than 32.2 µM in [11].

`CC[C@H](C)[C@H](NC(=O)[C@H](CCCCN)NC(=O)[C@@H](NC(=O)[C@@H](NC(=O)[C@H](CCC(N)=O)NC(=O)CNC(=O)[C@H](Cc1cnc[nH]1)NC(=O)[C@H](CCC(N)=O)NC(=O)[C@H](CC(N)=O)NC(=O)[C@H](CCC(N)=O)NC(=O)[C@@H](NC(=O)[C@H](CCCCN)NC(=O)[C@@H](N)Cc1ccccc1)C(C)C)C(C)C)C(C)C)C(=O)N[C@@H](Cc1ccccc1)C(=O)N[C@@H](Cc1cnc[nH]1)C(=O)N[C@@H](Cc1cnc[nH]1)C(=O)O` [FKVQNQHGQVVKIFHH]: the MIC in assay [12] is 20 µM (≈ 38.9 µg/mL); in the assay on Escherichia coli D21, no less than 410 µM; in assay [13], no less than 617 µM; in assay [14], no less than 205 µM; in assay [15] it was 12.5 µM (≈ 24.3 µg/mL); in assay [16] it was 6.3 µM (≈ 12.3 µg/mL). Besides, the MIC in assay [17] is 6.3 µM (≈ 12.3 µg/mL); in assay [18], no less than 94 µM; in the assay on Bacillus megaterium Bm11 it was 1.95 µM (≈ 3.8 µg/mL); in assay [19] it was no less than 1000 µM; in assay [20], no less than 1000 µM; with Micrococcus luteus Ml11, 23 µM (≈ 44.8 µg/mL). Besides, the MIC in [21] is 25 µM (≈ 48.7 µg/mL).

Take `CC[C@H](C)[C@H](N)C(=O)N[C@H](C(=O)NCC(=O)N[C@@H](Cc1cnc[nH]1)C(=O)N[C@@H](CC(C)C)C(=O)N[C@H](C(=O)N[C@@H](CCCCN)C(=O)N[C@H](C(=O)N[C@@H](C)C(=O)N[C@@H](CC(C)C)C(=O)NCC(=O)N[C@@H](CCSC)C(=O)N[C@@H](CC(C)C)C(=O)NCC(=O)N[C@@H](CC(C)C)C(N)=O)[C@@H](C)O)[C@@H](C)CC)[C@@H](C)CC` [IIGHLIKTALGMLGL]: the MIC is 100 µM (≈ 155 µg/mL) in [22]; 25 µM (≈ 38.7 µg/mL) in the assay with Streptococcus uberis; 25 µM (≈ 38.7 µg/mL) in assay [23]; 25 µM (≈ 38.7 µg/mL) in assay [24]; no less than 50 µM in the assay with Listeria innocua; 12 µM (≈ 18.6 µg/mL) in [25]. For the same compound, the MIC worked out at 12 µM (≈ 18.6 µg/mL) against Leuconostoc lactis and 25 µM (≈ 38.7 µg/mL) against Bacillus cereus.

For `CC[C@H](C)[C@H](N)C(=O)N[C@@H](CC(C)C)C(=O)NCC(=O)N1CCC[C@H]1C(=O)N[C@H](C(=O)N[C@@H](CC(C)C)C(=O)NCC(=O)N[C@@H](CC(C)C)C(=O)N[C@H](C(=O)N[C@@H](CO)C(=O)N[C@@H](CC(=O)O)C(=O)N[C@H](C(=O)N[C@@H](CC(C)C)C(=O)N[C@@H](CC(=O)O)C(=O)N[C@@H](CC(=O)O)C(=O)N[C@H](C(=O)N[C@@H](CC(C)C)C(=O)NCC(=O)N[C@H](C(=O)N[C@@H](CC(C)C)C(=O)O)[C@@H](C)CC)C(C)C)[C@@H](C)O)C(C)C)C(C)C` [ILGPVLGLVSDTLDDVLGIL], the MIC in assay [26] is no less than 50 µM; in assay [27], no less than 50 µM; in [28], no less than 180 µM; in [29], no less than 100 µM; against Escherichia coli W3110, no less than 180 µM.

Regarding `CC[C@H](C)[C@H](N)C(=O)N[C@@H](Cc1ccccc1)C(=O)NCC(=O)N[C@@H](C)C(=O)N[C@H](C(=O)N[C@@H](Cc1c[nH]c2ccccc12)C(=O)N[C@@H](CCCCN)C(=O)NCC(=O)N[C@H](C(=O)N[C@@H](CO)C(=O)N[C@@H](CO)C(=O)N[C@@H](CC(C)C)C(=O)N[C@@H](CC(C)C)C(=O)O)[C@@H](C)CC)[C@@H](C)CC` [IFGAIWKGISSLL], the MIC in [30] was no less than 48 µM; in assay [31] it was no less than 87 µM; in assay [32], no less than 68 µM; with Pseudomonas putida it was no less than 87 µM; in [33], no less than 36 µM; against Enterococcus sp. S13 it was no less than 36 µM. Further, the MIC in assay [4] is no less than 48 µM; in [34], 28 µM (≈ 39.3 µg/mL); in assay [35], no less than 87 µM; in assay [36], 16 µM (≈ 22.5 µg/mL); in assay [37], 18 µM (≈ 25.3 µg/mL).

These data come from DBAASP.
